Results from patent US10231958B2, “Methods and compositions for enhancing chemotherapy” (THE BOARD OF REGENTS OF THE UNIVERSITY OF TEXAS SYSTEM, priority 2015, dated 2019).

Tests used:
[1] = test system: Kc167 cells, MEFs, and MDA-MB231 breast cancer cells; assay: Cell viability (CellTiter-Glo); assay type: cell-based, D. melanogaster, mouse, human; conditions: for effect on MMS toxicity / effect on toxicity of 4-HC, TMZ and CDDP: pre-incubation; for effect on MMS toxicity: then MMS, all cell types tested, 48 h; for effect on toxicity of 4-HC, TMZ and CDDP: then alkylator
Method: The D. melanogaster embryonic cell line Kc167 was grown in Schneider medium (Invitrogen, Carlsbad, Calif.) supplemented with 10% heat-inactivated (56° C./30 min) fetal bovine serum (FBS), penicillin and streptomycin at 22° C. in a humidified incubator. Primary MEFs were obtained by harvesting 14.5-day C57BL/6J embryos as previously described (Ravi et al., 2009, PLoS Genet 5, e1000527). Briefly, fetal liver and head were removed and the remainder of the embryo was mechanically disaggregated in plating medium. A suspension of single-cells was plated in DMEM (plus 10% FBS, 100 U/mL penicillin and 100 μg/mL streptomycin). MEFs were grown for two passages before freezing aliquots. Aliquots were taken and expanded as needed for each experiment. MDA-MB231, SkBr3 and MCF-7 breast cancer cells lines were obtained from ATCC and grown in DMEM supplemented with 10% inactivated FBS plus antibiotics in a 37° C. humidified incubator at […] atmosphere. Cells were kept and treated in the exponential phase of growing (60-70% confluence). […] DMSO concentrations were kept to a maximum of 0.1% for all experiments. Cell viability was assessed using CellTiter-Glo Luminescent Viability assay (Promega) in 384 or 96-well plates white-border clear-bottom plated cells. For caspase-3/7 activity, Caspase-Glo 3/7 Assay kits were used (Promega). For caspase assays, the cells were seeded in 96-well plates and assayed directly after treatments. Caspase-3/7 inhibitor (Z-DEVD-fmk) was used to ensure assay specificity. LDH release into culture medium was quantified by Cytotox-96 Non-Radioactive assay kit in agreement with instructions (Promega).

[2] = test system: Intracellular ROS production; assay: Real-time ROS production (DCF assay); assay type: cell-based; conditions: for effect on ROS levels: Trolox 200 μM, NAC 7.5 mM, GSH-E 10 mM
Method: Intracellular ROS production was detected using DCFH-DA probe (Sigma) (Zanotto-Filho et al., 2010, Cancer Lett 288, 192-203). This reagent enters the cells and reacts predominantly with highly oxidizing species of ROS, such as hydroxyl radicals, hydroperoxides, and peroxynitrite, thus producing the fluorophore DCF. Briefly, cells were seeded in black-edge clear bottom 96-well plates. After reaching 70% confluence, medium was changed and cells were incubated with 20 μM DCFH-DA dissolved in medium containing 0.5% FBS. After 1 h pre-incubation to allow DCFH-DA uptake, treatments were added to its respective final concentrations and DCF fluorescence was monitored at 0.5, 1, 3, 8, 12, 16 and 24 h in a fluorescence reader (Ex/Em=485/532 nm). Hydrogen peroxide was used as a positive control and N-acetylcysteine (NAC), GSH-ethyl-ester (GSH-E) and Trolox were used as antioxidant standards. As a control, at the end of 24 h, cell viability was assessed and compared to wells in the absence of DCFH-DA.

[3] = test system: protein sulfhydryl (protein-SH) groups; assay: Protein sulfhydryl groups (dibromobimane assay); assay type: cell-based; conditions: BSO treatment plus MMS
Method: Protein reduced thiol groups (Protein-SH) were measured by dibromobimane assays with minor modifications (PMID:20463849). The 6-well plated cells (500,000 cells) were scraped in 0.6 mL PBS and 200 μL Perchloric acid (6 N) was added to precipitate proteins. The samples were incubated for 5 min in ice, centrifuged (14,000×g) Supernatants containing small peptides and glutathione were discarded and pellets were resuspended in 100 μL NaOH 0.1N, neutralized with 100 μL ice cold Perchloric acid (0.1 N), and 0.1 N PBS was added to keep pH constant. A stock solution of 4 mM dibromobimane in DMSO was added to a final concentration 40 μM, and incubated for 30 30 min at 37° C. Dibromobimane-protein fluorescence was measured at Ex=393 and, Em=477 nm.

[4] = test system: MDA-MB231 cells; assay: Extracellular matrix invasion assay (Boyden chamber); assay type: cell-based, human; conditions: direct incubation
Method: (§1) Quantification of MMP1 and MMP3 content in culture medium was assessed using RayBio-MMP3 and RayBio-MMP1 Elisa Kit (RayBiotech, Inc); IL8 was analyzed by Human IL-8 Elisa kit (Pierce Biotechnology). The levels of prostaglandin E2 (PGE2) were determined using the Prostaglandin E2 EIA Kit Monoclonal (Cayman Chemical Company). Culture media were diluted to fit within the standard curves. For conditioned media (CM) preparation for invasion and in vitro angiogenesis experiments, 12-well plated cells were treated with MMS (or MMS plus inhibitors) for 8 h in the presence of 10% FBS, twice washed with HBSS, and incubated with 700 μL drug/serum-free fresh medium for additional 12 h. Thereafter, the conditioned fresh medium was collected and directly used for migration and invasion experiments in order to reduce freezing associated loss of activity.
The invasion potential of breast cancer cells was estimated using the QCM™ 24-Well Cell Invasion Assay Fluorimetric (Millipore). Serum starved cells were trypsinized, trypsin-inhibited, centrifuged, resuspended to 5000 cells/μL, and 50 μL of this suspension (250,000 cells) was seeded on 8 μm pore size inserts coated with extracellular matrix in serum-free conditions. Afterwards, 200 μL conditioned (CM) or fresh medium without serum was added to top chambers. The bottom chamber consisted of 500 μL of DMEM supplemented with 10% FBS as chemoattractant. Cells were allowed to migrate for 24 h at 37° C. under 5% CO2. Invaded cells were detached from the bottom side of the insert, lysed and incubated with CyQuant GR fluorescent Dye for 15 min. Fluorescence was read at Ex/Em=480/520 nm. Percentage of invading cells was compared to cell number standard curves.

[5] = test system: human endothelial cells; assay: In vitro angiogenesis (Angiophase kit, CD31); assay type: cell-based; conditions: direct incubation
Method: as §1
The Angiophase kit (MBL Inc.) was used to assess the angiogenic potential of conditioned media (CM) from breast cancer cells or the direct effect of pharmaceutical inhibitors (free-drug system) on vessel-like structures formation in vitro. With this kit, human endothelial cells are co-cultured in a specially designed medium to form threadlike tubule structures. These gradually join up to form a network of anastomosing tubules, which resemble the capillary bed found in the CAM assay. Kit-provided cryopreserved co-culture of human endothelial cells were plated and kept for 96 h (proliferative phase) without treatments. Afterwards, the cells were maintained in the presence of conditioned medium from alkylating agent treated cells or control medium for a total of 14 days (angiogenic/vasculogenic phase). Medium was changed each 2 days. At the end of treatments, the cells were fixed and immune-stained for CD31 (PECAM-1), following by incubation with secondary antibody conjugate. ELISA was developed using the soluble substrate p-nitrophenyl-phosphate (p-NPP) whose product was colorimetrically read at 405 nm. After ELISA assays, the wells were washed with dH2O and tubule staining was performed by incubating CD31-stained tubules with the substrate BCIP/NBT, which form insoluble precipitates. Tubules were counted and photographed for qualitative monitoring.

[6] = test system: NFκB-responsive firefly luciferase construct in MDA-MB231 cells; assay: NFκB gene reporter assay; assay type: cell-based, human; conditions: MDA-MB231, pre-incubation with inhibitor
Method: (§2) Prior to transfection, cells were plated in 96-well plates to 80-90% confluence (100 μL antibiotic free-medium) after 24 h. When used, siRNA were incubated by reverse transfection during cells seeding. […] A mixture of non-inducible firefly luciferase construct and constitutively expressing Renilla luciferase construct (40:1) were used as negative controls. Approximately 24 h post-transfection, the medium was changed and the cells were treated for 12 h with alkylating agents (with/out 6 h pre-treatments). At the end of this period, medium was changed to drug-free fresh medium (to minimize the effect of alkylating toxicity on promoters activity) and cells were kept for an additional 12 h.

[7] = test system: MDA-MB231
[8] = test system: AP1-responsive firefly luciferase construct in MDA-MB231 cells; assay: AP-1 gene reporter assay; assay type: cell-based, human; conditions: MDA-MB231, pre-incubation with inhibitor
Method: as §2

[9] = test system: Intracellular glutathione levels; assay: Glutathione assay; assay type: cell-based; conditions: glutathione precursors
Method: Intracellular glutathione levels were measured using the Glutathione (GSH/GSSG/Total) Fluorometric Assay Kit (BioVision Incorporated, Calif.), following manufacturer protocol. Briefly, 1×10^6 cells were scraped in PBS and centrifuged. Pellets were resuspended in 100 μL Glutathione assay buffer. 60 μL of this homogenate was mixed with PCA (perchloric acid) and centrifuged. Supernatant containing small molecules including GSH were neutralized with KOH and 3 fractions were collected and separated to analyze reduced (GSH), oxidized (GSSG) and total glutathione forms (GSH+GSSG) by reaction with OPA probe (o-phthalaldehyde) in the presence or absence of GSH quencher or reducing agents depending on the compound to be determined. Fluorescence was monitored at Ex/Em=340/420 nm for 40 min. Glutathione forms were calculated and normalized by protein (Bradford's assay).

[10] = test system: MAPKs (ERK1/2, JNK1/2 and p38) and ATF2; assay: Western blot of MAPK phosphorylation; assay type: cell-based; conditions: MDA-MB231 cells, 8 h
Method: (§3) Western blot. Protein lysates were prepared using RIPA buffer containing 5% sodium deoxycholate, 0.1% SDS, 0.1% Igepal in PBS with a cocktail of protease and phosphatase inhibitors (1 mM PMSF, 1 mM sodium orthovanadate, 1 mM NaF, and 30 μL/mL aprotinin (Sigma-Aldrich, USA)) and clarified by centrifugation. Protein concentration was determined using Bradford Protein Assay Reagent (Biorad, Hercules, Calif.). Equal amounts of protein were resolved using 8-12% SDS polyacrylamide gel, transferred onto nitrocellulose membranes (Hybond-ECL, GE Healthcare Lifesciences, Piscataway, N.J.) and detected using Lumiglo system (Cell Signaling Technology, Calif.) and x-ray films. Primary antibodies included COX-2 (#4842), NRF2 (D1C9), p-JNK1/2 (Thr183/Tyr185, #4671), p-p38 (Thr180/Tyr182, #9216), p-ERK1/2 (Thr202/Tyr204, #9101), BiP/GRP78 (C50B12), IRE1a (14C10), CHOP (L63F7) and PERK (D11A8) from Cell Signaling Technology; p-IRE1a (Ser724; NB100-2323) from Novus Biologicals; GCLC (Ab41463), beta-actin (ab8227) and ATF6 (Ab37149) from Abcam; p-PERK (Thr 981, sc-32577) and ATF3 (C19) were purchased from Santa Cruz. All primary antibodies were used at 1:1000 dilutions and secondary antibodies were 1:3000 in TBS-T with 5% BSA.

[11] = test system: NRF2, GCLC, ER stress markers; assay: Western blot of NRF2, GCLC and ER stress markers; assay type: cell-based; conditions: CHX 1 μg/mL, Actinomycin D 5 μg/mL, NAC 7.5 mM
Method: as §3

Compound	effect on MMS toxicity [1]	effect on toxicity of 4-HC, TMZ and CDDP [1]	trans-well invasion, purified factor [4]	effect on GSH levels [9]	effect on ROS levels [2]	further results
CCCCS(=N)(=O)CCC(N)C(=O)O (centres unmarked) [BSO, buthionine sulfoximine]	substantial necrotic cell death	potentiated	–	–	–	viability, agent alone ([1]; 2.5 mM, up to 48 h): without effect on viability; ROS production, agent alone ([2]; BSO 2.5 mM, CDDP 75 μM, TMZ 1.5 mM, 4HC 75 μM, 12 h): increased ROS to levels higher than the dose of MMS used; effect on MMS-induced ROS ([2]; BSO plus MMS): 2 fold; effect on depletion of protein-SH residues by MMS [3]: potentiated the depletion of protein-SH residues by MMS
IL8: purified IL8	–	–	stimulated trans-well invasion	–	–	vessel-like structure formation, purified factor [5]: angiogenic
MMP1: purified MMP1	–	–	stimulated trans-well invasion	–	–	–
N#CC(=C(/N)Sc1ccccc1N)/C(C#N)=C(/N)Sc1ccccc1N [UO126]	–	–	–	–	–	effect on MMS-induced activation of NFκB reporter [6]: blocked; decrease in cell numbers (anti-proliferative, not cytotoxic) [7]: 30%; effect on MMS-induced activation of AP-1 reporter [8]: blocked
CCOC(=O)CNC(=O)[C@H](CS)NC(=O)CC[C@H](N)C(=O)O [GSH-E, glutathione ethyl-ester]	protective against MMS toxicity	attenuated	–	effectively increased the GSH levels	reduced ROS below levels of the control	–
CC(=O)N[C@@H](CS)C(=O)O [NAC, N-Acetyl-Cysteine]	protective against MMS toxicity	attenuated	–	effectively increased the GSH levels	reduced ROS below levels of the control	effect on MMS-induced MAPK phosphorylation [10]: inhibited; effect on BSO+MMS toxicity ([1]; NAC pretreatment): rescued the deleterious effects of BSO+MMS combination; effect on MMS-induced NRF2 activation [11]: block both NRF2 activation and ER stress caused by MMS
